Patent US20250051403A1, “ANTIMICROBIAL PEPTIDES, VARIANTS AND CHEMICAL ANALOGUES THEREOF AND THEIR USES” (priority 2021, published 2025)
Like-named read-outs stand apart in the source and are kept apart here. Positions of bridges follow the written chain, without caps; N, C: chain ends. Residues, ends and D or L forms follow the SMILES beside them.

Experiments:
P. aeruginosa [1] = assay: Membrane permeabilization assay (propidium iodide); type: cell-based, Pseudomonas aeruginosa; conditions: 2.5 min of incubation, 37° C., 3 times their MIC; CTAB at 300 μM
Procedure: Several tests were performed to determine the mechanism of the antimicrobial activity of the peptides of the invention. Most of the cationic AMP can increase the permeability of the bacterial membrane through pore-forming activity. We evaluated the ability of Michelicin to cause pore-formation using P. aeruginosa as model bacteria. Permeabilization of the bacterial membrane by Michelicin was evaluated using the cell-impermeable DNA probe propidium iodide (PI) (Di Pasquale et al., 2010; Oyama et al., 2017). PI can interact with DNA/RNA, leading to increase in fluorescence of the molecule. The bacterial membrane is impermeable to PI preventing its interaction with intracellular DNA/RNA. Thus, fluorescence of PI (expressed as RFU: relative fluorescence unit) only increases if membrane integrity is compromised through pore-formation. We measured the time-dependent effect of our peptide and other molecules on PI fluorescence at 37° C., all molecules being tested at 3 times their MIC. […] Kinetics of fluorescence variations (excitation at 530 nm/emission at 590 nm) were recorded using a microplate reader (SynergyMx, Bioteck) over 80 min period at 37° C. […] The permeabilization effect of the tested compound (i.e., Michelicin, Alvinellacin, Arenicin, and control, PMB or CTAB) was expressed as percentage of total permeabilization caused by CTAB.

P. aeruginosa [2] = assay: Serial passage/resistance assay; type: cell-based, Pseudomonas aeruginosa; conditions: continuous exposure to sub-lethal doses, 30 days
[3] = system: Bacillus subtilis (ATCC 6633); assay: MIC, broth microdilution; type: cell-based; conditions: Table IV, strain description
Procedure: To standardize the bacterial cell suspension for assay of antibacterial activity, some colonies of each strain grown overnight on MHA (Mueller Hinton Agar. ROTH) plates were suspended in MHB (Mueller Hinton Broth. ROTH) or MHB saline (Mueller Hinton Broth containing 565 mM NaCl) and incubated at 37° C. or 30° C. until visible turbid. This log-phase inoculum was diluted 1:100 in the same culture media. Using sterile 96-well microtiter plates (CELLSTAR. Greiner bio-one), serial 2-fold dilutions (40 to 0.78 μM) of each peptide were prepared in cation-adjusted acetic acid 0.02% with 0.4% BSA (Bovin Serum Albumin fraction V. Boehringer) at a volume of 10 μL/well. Each well was inoculated with 100 μL of the standardized bacterial inoculum, corresponding to a final test concentration of about 10^5 CFU/mL. Antimicrobial activities were expressed as the MIC (Minimal Inhibitory Concentration), the lowest concentration of peptide at which 100% inhibition of microbial growth was observed after 24 h of incubation at 37° C. or 30° C. by measuring OD600 in a microtiter plate reader. The minimal bactericidal concentration (MBC) was defined as the peptide concentration where no colony growth was observed.
The same experiments as described in 1) were performed. For the evaluation of antimicrobial activity against some other strains, a resazurin microtiter assay was used as explained hereinafter.

[4] = system: B. subtilis nisin resistant (DSMZ 347); conditions: Table IV, strain description
human erythrocytes = assay: Haemolytic assay; type: cell-based
Procedure: The hemolytic activity of the peptides was determined using fresh human erythrocytes from healthy donors. Blood was centrifuged and the erythrocytes were washed three times with a phosphate-buffered saline (PBS: 35 mM phosphate buffer/150 mM NaCl, pH 7.4). […] Samples were incubated at 37° C. for 60 min. After incubating the mixtures were centrifuged at 1,500 rpm for 10 min. The release of hemoglobin was monitored by measuring the absorbance (Abs) of the supernatant at 405 nm. Hemolytic rates of 0 and 100% were determined in PBS and 0.1% Triton X-100, respectively. The percentage of hemolysis was calculated by employing the following equation: Percentage hemolysis=[([…])/(Abs405 nm in 0.1% Triton X-100−Abs405 nm in PBS)]×100.

[5] = Cytotoxicity, resazurin cell viability; type: cell-based, human; conditions: human, 80 μM, 48 h
Procedure: (§1) The toxicity of Michelicin on human cells was tested as previously described (Borie et al., 2017; Oyama et al., 2017). Briefly, human cells were cultured in Dulbecco's modified essential medium (DMEM) supplemented with 10% fetal calf serum (FCS), 1% L-glutamine and 1% antibiotics (all from Invitrogen). Cells were routinely grown in onto 25 cm^2 flasks maintained in a 5% CO2 incubator at 37° C. For toxicity assay, cells grown on 25 cm^2 flasks were detached using trypsin-EDTA solution (Thermofisher) and seeded into 96-well cell culture plates (Greiner Bio-one) at approximately 10^4 cells per well (counted using Mallasez's chamber). The cells were grown at 37° C. in a 5% CO2 incubator until they reached confluence (approximately 48-72 h of seeding). Wells were then aspirated and increasing concentrations of AMP were added to the cells and incubated for a further 48 h at 37° C. in a 5% CO2 incubator. The wells were then emptied, and cell viability was evaluated using resazurin based in vitro toxicity assay kit (Sigma-Aldrich) following manufacturer's instructions. Briefly, resazurin stock solution was diluted 1:100 in sterile PBS containing calcium and magnesium (PBS++, pH 7.4) and emptied wells were filled with 100 μL of the resazurin diluted solution. After 4 h incubation at 37° C. with the peptide treated cells, fluorescence intensity was measured using microplate reader (SynerMix, Bioteck) (excitation wavelength of 530 nm/emission wavelength of 590 nm). The fluorescence values were normalized by the controls and expressed as percentage of cell viability. The IC50 values of tested AMP on cell viability (i.e. the concentration of peptides causing a reduction of 50% of the cell viability) were calculated using GraphPad® Prism 7 software. Two cell lines were tested: Human Bronchial Epithelial Cell Line (BEAS; ATCC CRL-9609) and Human umbilical vein endothelial cell (HUVEC).

[6] = system: Human Bronchial Epithelial Cell Line (BEAS; ATCC CRL-9609); assay: Cytotoxicity, resazurin cell viability; type: cell-based; conditions: even at doses>80 μM
Procedure: as §1

[7] = system: Human umbilical vein endothelial cell (HUVEC); assay: Cytotoxicity, resazurin cell viability; type: cell-based; conditions: even at doses>80 μM
Procedure: as §1

[8] = system: human lung fibroblasts (IMR90 cells (ATCC CCL-186)); assay: Cytotoxicity; type: cell-based; conditions: even at doses>80 μM
[9] = system: Mycobacterium tuberculosis mc^26230
P. aeruginosa [10] = system: P. aeruginosa

polymyxin B [PMB]
Permeabilization (percentage of total permeabilization caused by CTAB) (P. aeruginosa [1]): 2-5%

CO/N=C1\CN(c2nc3c(cc2F)c(=O)c(C(=O)O)cn3C2CC2)CC1CN (centres unmarked) [Gemifloxacin]
Resistance induction / fold increase in initial MIC (in words) (P. aeruginosa [2]): relevant

Nisin
MIC Nisin [3]: (MIC Nisin < 0.09 μg/mL)
MIC Nisin [4]: MIC (Nisin 3 μg/mL)

CC[C@H](C)[C@@H]1NC(=O)[C@H](CCCNC(=N)N)NC(=O)[C@H](C(C)C)NC(=O)[C@@H](NC(=O)[C@@H](NC(=O)[C@@H](N)CCCNC(=N)N)C(C)C)CSSC[C@@H](C(=O)N[C@@H](Cc2c[nH]c3ccccc23)C(=O)N[C@@H](CC(N)=O)C(=O)N[C@H](C(=O)O)[C@@H](C)O)NC(=O)[C@H](CCCNC(=N)N)NC(=O)[C@H](CCCNC(=N)N)NC(=O)[C@H](Cc2ccc(O)cc2)NC(=O)[C@@H]2CSSC[C@H](NC1=O)C(=O)N[C@@H](CCCNC(=N)N)C(=O)N[C@@H](CC(N)=O)C(=O)NCC(=O)N[C@@H](CCCNC(=N)N)C(=O)N2 [Michelicin, RVC1VRIC2RNGRC3YRRC4WNT] (H-RVCVRICRNGRCYRRCWNT-OH; disulfide 3-16, 7-12)
Effect on hemolysis (human erythrocytes; 1.2 to 40 μM, 60 min at 37° C., FIG. 2): far less than the effect of Arenicin
Hemolytic activity (human erythrocytes; even at doses>80 μM): not observed
viability at 48 h, 80 µM ([5]; BEAS human bronchial epithelial cells (ATCC CRL-9609), read-out: % of viability, BEAS cells): 100%
viability at 48 h, 80 µM ([5]; HUVEC (human umbilical vein endothelial cells), read-out: % of viability, HUVEC cells): 95%
Cytotoxic activity towards BEAS cells [6]: not observed
Cytotoxic activity towards HUVEC cells [7]: not observed
Cytotoxic activity towards IMR90 cells [8]: not observed
MIC with 565 mM NaCl (Vibrio alginolyticus): 0.62 to 1.25 µM
V. alginolyticus MIC (Vibrio alginolyticus): 1.25 to 2.5 µM
MIC (Vibrio alginolyticus; 24 h): 0.07 to 0.15 µM
M. tuberculosis mc^26230 MIC [9]: 12.3 to 13.0 µM
MIC [9]: 12.3 to 13.0 µM
M. smegmatis mc^2155 MIC (M. smegmatis mc^2155): 0.57 to 2.15 µM
P. aeruginosa MIC (P. aeruginosa [10]): 2.5 to 5 µM

CC[C@H](C)[C@H](NC(=O)[C@@H](N)CCCNC(=N)N)C(=O)N[C@H]1CSSC[C@@H](C(=O)N[C@@H](Cc2c[nH]c3ccccc23)C(=O)N[C@@H](CC(N)=O)C(=O)N[C@H](C(=O)O)[C@@H](C)O)NC(=O)[C@H](CCCCN)NC(=O)[C@H](CCSC)NC(=O)[C@H](Cc2ccccc2)NC(=O)[C@@H]2CSSC[C@H](NC(=O)[C@H](C(C)C)NC(=O)[C@H](CCCNC(=N)N)NC(=O)[C@H](C(C)C)NC1=O)C(=O)N[C@@H](CCCNC(=N)N)C(=O)N[C@@H](CC(N)=O)C(=O)NCC(=O)N[C@@H](Cc1ccccc1)C(=O)N2 [V4, RIC1VRVC2RNGFC3FMKC4WNT] (H-RICVRVCRNGFCFMKCWNT-OH; disulfide 3-16, 7-12; N-terminus and C-terminus assumed)
V. alginolyticus MIC (Vibrio alginolyticus): 0.312 to 0.625 µM
M. tuberculosis mc^26230 MIC [9]: 7.5 to 7.9 µM
M. smegmatis mc^2155 MIC (M. smegmatis mc^2155): 1.49 to 4.15 µM
P. aeruginosa MIC (P. aeruginosa [10]): 2.5 to 5 µM

CC[C@H](C)[C@@H]1NC(=O)[C@@H]2CSSC[C@H](NC(=O)[C@H](C(C)C)NC(=O)[C@H](CCCNC(=N)N)NC(=O)[C@H](C(C)C)NC(=O)[C@@H](NC(=O)[C@@H](NC(=O)[C@@H](N)CCCNC(=N)N)[C@@H](C)CC)CSSC[C@@H](C(=O)N[C@@H](Cc3c[nH]c4ccccc34)C(=O)N[C@@H](CC(N)=O)C(=O)N[C@H](C(=O)O)[C@@H](C)O)NC(=O)[C@H](CCCCN)NC(=O)[C@H](CCSC)NC1=O)C(=O)N[C@@H](CCCNC(=N)N)C(=O)N[C@@H](CC(N)=O)C(=O)NCC(=O)N[C@@H](CCCNC(=N)N)C(=O)N2 [V3, RIC1VRVC2RNGRC3IMKC4WNT] (H-RICVRVCRNGRCIMKCWNT-OH; disulfide 3-16, 7-12; N-terminus and C-terminus assumed)
V. alginolyticus MIC (Vibrio alginolyticus): 0.625 to 1.25 µM
M. tuberculosis mc^26230 MIC [9]: 22.9 to 29.6 µM
M. smegmatis mc^2155 MIC (M. smegmatis mc^2155): 0.64 to 4.66 µM
P. aeruginosa MIC (P. aeruginosa [10]): 2.5 to 5 µM
